Each structure is given as a SMILES string.

The nature of data set [1]: Metabolic stability in human liver microsomes assessed as half life incubated for 10 mins measured up to 60 mins in presence of NADPH by LC-MS/MS analysis. The class given is ADME, Microsome. Background: Liver microsomes are a subcellular fraction often used to study metabolism.
Data set [2] has as its target Histone-lysine N-methyltransferase 2B (Homo sapiens, UniProt Q9UMN6). Kind of data set: Inhibition of MLL4 (unknown origin) using peptide substrate preincubated for 10 mins followed by substrate addition for 4 hrs by HTRF assay. (TR-FRET usually uses a lanthanide donor and a delayed reading to cut background.)
Data set [3] is described as follows: Half life in Sprague-Dawley rat at 10 mg/kg, po measured for 0.25 to 24 hrs by LC-MS/MS analysis. As to conditions: in vivo, time 0.25-24 hrs. The class given is ADME, organism-based.
The subject of data set [4] is A-375. Description: Induction of apoptosis in human A-375 cells assessed as total apoptotic cells at 4 uM incubated for 48 hrs by Annexin-V FITC/PI staining based flow cytometry analysis relative to control. The class given is functional. A general note: A flow cytometer gives signals particle by particle.
The nature of data set [5]: Metabolic stability in rat liver microsomes assessed as clearance measured up to 60 mins in presence of NADPH by LC-MS/MS analysis. As to conditions: 1 h. The class given is ADME, Microsome.
The nature of data set [6]: Oral bioavailability in Sprague-Dawley rat at 10 mg/kg, measured for 0.25 to 24 hrs by LC-MS/MS analysis. As to conditions: in vivo, time 0.25-24 hrs. The class given is ADME, organism-based.
Data set [7] in a line: Metabolic stability in rat liver microsomes assessed as half life measured up to 60 mins in presence of NADPH by LC-MS/MS analysis. The data set is classed as ADME, Microsome.
In data set [8] the test system is A-375. Description: Induction of apoptosis in human A-375 cells assessed as total apoptotic cells at 2 uM incubated for 48 hrs by Annexin-V FITC/PI staining based flow cytometry analysis relative to control. The class given is functional.
Data set [9] concerns the target Histone-lysine N-methyltransferase EZH2 (Homo sapiens, UniProt Q15910). Kind of data set: Inhibition of EZH2 (unknown origin) using peptide substrate preincubated for 10 mins followed by substrate addition for 4 hrs by HTRF assay.
The nature of data set [10]: Volume of distribution at steady state in Sprague-Dawley rat at 3 mg/kg, iv measured for 0.25 to 24 hrs by LC-MS/MS analysis. As to conditions: in vivo, time 0.25-24 hrs, read-out: Vdss. The data set is classed as ADME, organism-based.
The nature of data set [11]: Plasma protein binding in rat by LC-MS/MS analysis. The data set is classed as ADME, cell-free. The conditions noted are these: read-out: PPB (converted).
In data set [12] the target is Protein arginine N-methyltransferase 1 (Homo sapiens, UniProt Q99873). Description: Inhibition of PRMT1 (unknown origin) using histone H4 (1 to 21 residues) peptide as substrate incubated for 210 mins in presence of SAM by AlphaLISA assay.
Data set [13] deals with A-375. Description: Induction of apoptosis in human A-375 cells assessed as total apoptotic cells at 0.5 uM incubated for 48 hrs by Annexin-V FITC/PI staining based flow cytometry analysis relative to control. The data set is classed as functional.
Data set [14] in a line: Cmax in Sprague-Dawley rat at 10 mg/kg, po measured for 0.25 to 24 hrs by LC-MS/MS analysis. The data set is classed as ADME, organism-based. On the set-up: time lower 0.25 hrs, dose 10 mg/kg, time upper 24 hrs, route po. The conditions noted are these: in vivo.
Data set [15] addresses Protein arginine N-methyltransferase 5 (Homo sapiens, UniProt O14744). Description: Inhibition of PRMT5 (unknown origin) using histone H4 (1 to 21 residues) peptide/SAM as substrate incubated for 210 mins in presence of SAM by AlphaLISA assay.

Chain of Protein arginine N-methyltransferase 5 (O14744 whole entry, the tested form may be a part): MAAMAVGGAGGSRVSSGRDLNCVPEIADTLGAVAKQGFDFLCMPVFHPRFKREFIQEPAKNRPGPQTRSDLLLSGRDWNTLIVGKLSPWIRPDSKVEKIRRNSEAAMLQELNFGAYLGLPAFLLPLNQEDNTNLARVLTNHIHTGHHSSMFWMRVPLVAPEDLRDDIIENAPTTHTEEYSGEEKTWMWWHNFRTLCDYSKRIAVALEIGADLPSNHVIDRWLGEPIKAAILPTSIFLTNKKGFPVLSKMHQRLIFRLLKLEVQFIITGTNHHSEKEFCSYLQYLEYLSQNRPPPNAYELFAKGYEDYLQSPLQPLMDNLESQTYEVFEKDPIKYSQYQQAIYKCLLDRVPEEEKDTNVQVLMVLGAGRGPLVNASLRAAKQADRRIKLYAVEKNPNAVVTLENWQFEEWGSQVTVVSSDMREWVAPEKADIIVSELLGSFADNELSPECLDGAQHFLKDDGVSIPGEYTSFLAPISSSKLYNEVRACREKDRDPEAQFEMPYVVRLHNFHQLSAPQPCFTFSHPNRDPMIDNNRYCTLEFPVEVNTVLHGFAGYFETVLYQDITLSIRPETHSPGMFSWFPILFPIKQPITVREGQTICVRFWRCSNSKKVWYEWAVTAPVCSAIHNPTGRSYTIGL
Chain of Histone-lysine N-methyltransferase EZH2 (Q15910 whole entry): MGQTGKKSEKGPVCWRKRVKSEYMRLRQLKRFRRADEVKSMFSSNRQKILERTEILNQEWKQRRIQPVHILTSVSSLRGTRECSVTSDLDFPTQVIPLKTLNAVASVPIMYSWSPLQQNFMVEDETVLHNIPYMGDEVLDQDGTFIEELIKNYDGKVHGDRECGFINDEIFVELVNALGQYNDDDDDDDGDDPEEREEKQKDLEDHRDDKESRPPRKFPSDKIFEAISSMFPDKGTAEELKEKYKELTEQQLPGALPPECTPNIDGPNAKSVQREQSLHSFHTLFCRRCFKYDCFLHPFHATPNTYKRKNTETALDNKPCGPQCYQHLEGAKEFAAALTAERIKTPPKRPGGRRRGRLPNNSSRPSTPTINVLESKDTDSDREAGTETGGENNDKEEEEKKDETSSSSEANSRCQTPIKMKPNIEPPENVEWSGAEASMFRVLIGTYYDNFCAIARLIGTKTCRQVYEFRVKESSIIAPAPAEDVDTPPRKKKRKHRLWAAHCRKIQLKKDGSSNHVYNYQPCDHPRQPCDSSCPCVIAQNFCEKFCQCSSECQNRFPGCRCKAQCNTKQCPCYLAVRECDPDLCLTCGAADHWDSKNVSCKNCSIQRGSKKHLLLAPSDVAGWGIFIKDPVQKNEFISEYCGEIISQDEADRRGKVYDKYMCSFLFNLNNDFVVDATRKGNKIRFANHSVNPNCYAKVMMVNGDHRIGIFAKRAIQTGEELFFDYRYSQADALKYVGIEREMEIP
Chain of Histone-lysine N-methyltransferase 2B (Q9UMN6 whole entry): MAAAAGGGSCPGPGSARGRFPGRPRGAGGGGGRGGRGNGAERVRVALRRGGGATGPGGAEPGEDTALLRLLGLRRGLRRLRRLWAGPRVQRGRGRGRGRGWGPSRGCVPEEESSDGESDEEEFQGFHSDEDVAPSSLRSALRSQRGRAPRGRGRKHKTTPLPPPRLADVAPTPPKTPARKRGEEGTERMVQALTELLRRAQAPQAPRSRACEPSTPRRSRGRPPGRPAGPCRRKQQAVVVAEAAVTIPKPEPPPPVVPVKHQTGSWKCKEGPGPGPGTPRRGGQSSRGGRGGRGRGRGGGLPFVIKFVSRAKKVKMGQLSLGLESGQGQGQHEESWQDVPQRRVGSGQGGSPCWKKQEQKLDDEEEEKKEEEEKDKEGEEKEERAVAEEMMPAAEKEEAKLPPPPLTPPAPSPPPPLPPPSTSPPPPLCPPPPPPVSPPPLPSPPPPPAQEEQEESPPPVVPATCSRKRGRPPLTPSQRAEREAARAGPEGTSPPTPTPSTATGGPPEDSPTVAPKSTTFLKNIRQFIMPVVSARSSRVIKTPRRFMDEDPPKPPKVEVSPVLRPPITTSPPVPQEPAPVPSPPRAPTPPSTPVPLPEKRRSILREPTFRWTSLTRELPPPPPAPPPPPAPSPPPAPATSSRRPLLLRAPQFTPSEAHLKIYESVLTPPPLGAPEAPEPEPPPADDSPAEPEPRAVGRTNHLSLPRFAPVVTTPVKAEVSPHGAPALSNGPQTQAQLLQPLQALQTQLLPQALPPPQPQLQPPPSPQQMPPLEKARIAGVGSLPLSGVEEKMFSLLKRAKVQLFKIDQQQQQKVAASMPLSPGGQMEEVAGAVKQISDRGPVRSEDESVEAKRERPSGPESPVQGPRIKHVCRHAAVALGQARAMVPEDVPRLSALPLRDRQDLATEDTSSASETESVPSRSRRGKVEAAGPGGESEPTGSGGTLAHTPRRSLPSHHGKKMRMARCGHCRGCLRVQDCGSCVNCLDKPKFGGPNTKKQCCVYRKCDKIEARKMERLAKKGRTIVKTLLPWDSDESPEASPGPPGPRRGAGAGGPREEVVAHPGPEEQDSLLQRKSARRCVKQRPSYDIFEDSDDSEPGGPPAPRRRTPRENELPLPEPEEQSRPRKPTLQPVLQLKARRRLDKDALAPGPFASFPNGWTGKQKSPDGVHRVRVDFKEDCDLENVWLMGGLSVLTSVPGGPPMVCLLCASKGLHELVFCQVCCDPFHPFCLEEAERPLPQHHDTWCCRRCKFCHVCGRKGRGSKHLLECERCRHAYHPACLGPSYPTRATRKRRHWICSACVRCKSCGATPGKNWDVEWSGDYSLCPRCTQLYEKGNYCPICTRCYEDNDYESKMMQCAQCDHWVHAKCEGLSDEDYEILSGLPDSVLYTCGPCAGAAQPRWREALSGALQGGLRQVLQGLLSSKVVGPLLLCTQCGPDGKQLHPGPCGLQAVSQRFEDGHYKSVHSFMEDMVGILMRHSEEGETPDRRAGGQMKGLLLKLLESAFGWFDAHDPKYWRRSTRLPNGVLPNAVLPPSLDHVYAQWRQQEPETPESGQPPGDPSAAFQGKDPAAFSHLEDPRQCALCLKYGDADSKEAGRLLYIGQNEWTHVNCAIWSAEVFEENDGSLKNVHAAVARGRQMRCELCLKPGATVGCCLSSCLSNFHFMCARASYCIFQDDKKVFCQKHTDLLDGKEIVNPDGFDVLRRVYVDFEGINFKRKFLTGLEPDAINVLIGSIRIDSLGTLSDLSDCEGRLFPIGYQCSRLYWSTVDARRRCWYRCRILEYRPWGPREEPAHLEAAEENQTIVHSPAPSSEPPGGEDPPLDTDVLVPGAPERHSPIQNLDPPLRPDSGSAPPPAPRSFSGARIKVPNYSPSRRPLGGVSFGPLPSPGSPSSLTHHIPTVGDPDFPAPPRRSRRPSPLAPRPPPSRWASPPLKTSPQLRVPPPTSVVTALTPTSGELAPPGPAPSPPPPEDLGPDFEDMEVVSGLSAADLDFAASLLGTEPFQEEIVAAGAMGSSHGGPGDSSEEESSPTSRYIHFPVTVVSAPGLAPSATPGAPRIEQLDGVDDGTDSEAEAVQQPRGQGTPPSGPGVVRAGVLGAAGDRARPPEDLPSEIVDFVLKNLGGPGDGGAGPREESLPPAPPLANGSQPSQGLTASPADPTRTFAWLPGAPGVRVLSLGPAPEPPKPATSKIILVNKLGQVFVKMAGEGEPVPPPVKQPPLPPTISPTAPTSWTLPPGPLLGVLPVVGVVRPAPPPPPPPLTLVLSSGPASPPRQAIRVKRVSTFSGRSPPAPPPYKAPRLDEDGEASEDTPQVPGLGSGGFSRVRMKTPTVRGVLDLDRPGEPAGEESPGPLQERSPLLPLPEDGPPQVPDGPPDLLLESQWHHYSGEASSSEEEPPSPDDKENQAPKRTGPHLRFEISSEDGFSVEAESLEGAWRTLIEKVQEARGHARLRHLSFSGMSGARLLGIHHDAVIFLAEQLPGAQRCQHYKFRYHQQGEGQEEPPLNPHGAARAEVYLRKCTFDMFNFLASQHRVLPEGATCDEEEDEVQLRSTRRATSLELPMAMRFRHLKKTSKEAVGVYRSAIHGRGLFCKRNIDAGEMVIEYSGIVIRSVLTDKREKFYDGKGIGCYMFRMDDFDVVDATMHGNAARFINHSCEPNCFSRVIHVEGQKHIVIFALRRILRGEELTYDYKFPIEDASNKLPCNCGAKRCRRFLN
Chain of Protein arginine N-methyltransferase 1 (Q99873 whole entry, the tested form may be a part): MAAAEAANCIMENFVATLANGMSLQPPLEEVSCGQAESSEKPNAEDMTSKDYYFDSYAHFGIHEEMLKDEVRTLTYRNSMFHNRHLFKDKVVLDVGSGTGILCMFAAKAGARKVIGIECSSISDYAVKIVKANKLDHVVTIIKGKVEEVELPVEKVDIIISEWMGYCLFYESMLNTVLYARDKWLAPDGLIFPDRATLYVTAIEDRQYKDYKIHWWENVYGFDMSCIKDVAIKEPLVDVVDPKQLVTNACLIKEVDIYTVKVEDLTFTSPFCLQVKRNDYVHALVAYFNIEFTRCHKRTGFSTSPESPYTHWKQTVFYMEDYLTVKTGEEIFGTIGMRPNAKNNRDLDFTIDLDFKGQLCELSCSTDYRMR

The term half-life denotes the time needed for the level to fall by half in the phase considered. A word on the IC50: it is the concentration that gives 50% inhibition. For orientation: bioavailability means the share of a dose that reaches the circulation, judged against a reference dose that is usually intravenous. What is called Cmax is the highest concentration seen after dosing. In the case of `C[C@H](Oc1ccc(-c2cc3c(C4=CCNCC4)ncnc3[nH]2)cc1)c1ccccc1`, the half-life in data set [1] is 41.8 min; in data set [3] it was 451 min; in data set [7], 9.25 min. The IC50 is more than 20 µM in [2], more than 20 µM in data set [9], 3.25 µM in data set [12] and 0.047 µM in data set [15]. Besides, the values for the Activity in data set [4], in [8] and in data set [13] were 95.9%, 66.39% and 5.58%, respectively. In addition, the CLH in [5] came to 227 mL/min/g. The same molecule had a bioavailability in data set [6] of 7.25%. The Vd in data set [10] amounted to 62.5 L/kg. Besides, the fraction unbound in [11] was 0.014. The molecule further showed a Cmax in data set [14] of 8.22 ng/mL.

The values above are taken from ChEMBL document CHEMBL5154928, “Structure-Aided Design, Synthesis, and Biological Evaluation of Potent and Selective Non-Nucleoside Inhibitors Targeting Protein Arginine Methyltransferase 5” (J Med Chem, 2022).
